Key:
Experiment in all cases: Peptidase activity detection on Columbia agar containing substrate
Assay type in all cases: cell-based
[1] = test system: Listeria monocytogenes NCTC 11994; design: key: − = no fluorescence detected; e = trace of fluorescence; +/− = weak fluorescence; + = medium fluorescence; ++ = strong fluorescence; NG = No Growth; details: substrate 100 mg/l, 24 hours at 37° C., UV 360-365 nm
Protocol: (§1) 40 mg of each substrate are dissolved in 4 ml of dimethylformamide (DMF). This solution is completely taken up in 400 ml of Columbia agar autoclaved beforehand and kept molten at 50° C. The final concentration for each substrate is therefore 100 mg/l. Each of the media is distributed into 90 mm Petri dishes in a proportion of 20 ml per dish.
(§2) 18 microorganism strains derived from collections and belonging to various species of bacteria and of yeasts are inoculated onto these media by semi-quantitative isolation of 10 μl of a suspension at 0.5 McFarland diluted to 1/20. The media are incubated for 24 hours at 37° C., and then the colonies formed are examined visually under UV illumination at 360-365 nm.

[2] = test system: Enterococcus faecalis NCTC 775; design: key: − = no fluorescence detected; e = trace of fluorescence; +/− = weak fluorescence; + = medium fluorescence; ++ = strong fluorescence; NG = No Growth; details: substrate 100 mg/l, 24 hours at 37° C., UV 360-365 nm
Protocol: as §1, §2

[3] = test system: Staphylococcus aureus NCTC 11939; design: key: − = no fluorescence detected; e = trace of fluorescence; +/− = weak fluorescence; + = medium fluorescence; ++ = strong fluorescence; NG = No Growth; details: Staphylococcus aureus (MRSA) NCTC 11939; substrate 100 mg/l, 24 hours at 37° C., UV 360-365 nm
Protocol: as §1, §2

[4] = test system: Salmonella Typhimurium NCTC 74; design: key: − = no fluorescence detected; e = trace of fluorescence; +/− = weak fluorescence; + = medium fluorescence; ++ = strong fluorescence; NG = No Growth; details: substrate 100 mg/l, 24 hours at 37° C., UV 360-365 nm
Protocol: as §1, §2

[5] = test system: Enterococcus faecium NCTC 11047; design: key: − = no fluorescence detected; e = trace of fluorescence; +/− = weak fluorescence; + = medium fluorescence; ++ = strong fluorescence; NG = No Growth; details: Enterococcus faecium NCTC 11047 (Table 2); substrate 100 mg/l, 24 hours at 37° C., UV 360-365 nm
Protocol: as §1, §2

[6] = test system: Escherichia coli NCTC 10418; design: key: − = no fluorescence detected; e = trace of fluorescence; +/− = weak fluorescence; + = medium fluorescence; ++ = strong fluorescence; NG = No Growth; details: substrate 100 mg/l, 24 hours at 37° C., UV 360-365 nm
Protocol: as §1, §2

[7] = test system: Staphylococcus epidermidis NCTC 11047; design: key: − = no fluorescence detected; e = trace of fluorescence; +/− = weak fluorescence; + = medium fluorescence; ++ = strong fluorescence; NG = No Growth; details: substrate 100 mg/l, 24 hours at 37° C., UV 360-365 nm
Protocol: as §1, §2

[8] = test system: Staphylococcus aureus NCTC 6571; design: key: − = no fluorescence detected; e = trace of fluorescence; +/− = weak fluorescence; + = medium fluorescence; ++ = strong fluorescence; NG = No Growth; details: substrate 100 mg/l, 24 hours at 37° C., UV 360-365 nm
Protocol: as §1, §2

[9] = test system: Providencia rettgeri NCTC 7475; design: key: − = no fluorescence detected; e = trace of fluorescence; +/− = weak fluorescence; + = medium fluorescence; ++ = strong fluorescence; NG = No Growth; details: substrate 100 mg/l, 24 hours at 37° C., UV 360-365 nm
Protocol: as §1, §2

[10] = test system: Candida albicans ATCC 90028; design: key: − = no fluorescence detected; e = trace of fluorescence; +/− = weak fluorescence; + = medium fluorescence; ++ = strong fluorescence; NG = No Growth; details: substrate 100 mg/l, 24 hours at 37° C., UV 360-365 nm
Protocol: as §1, §2

[11] = test system: Yersinia enterocolitica NCTC 11176; design: key: − = no fluorescence detected; e = trace of fluorescence; +/− = weak fluorescence; + = medium fluorescence; ++ = strong fluorescence; NG = No Growth; details: substrate 100 mg/l, 24 hours at 37° C., UV 360-365 nm
Protocol: as §1, §2

[12] = test system: Candida glabrata NCPF3943; design: key: − = no fluorescence detected; e = trace of fluorescence; +/− = weak fluorescence; + = medium fluorescence; ++ = strong fluorescence; NG = No Growth; details: substrate 100 mg/l, 24 hours at 37° C., UV 360-365 nm
Protocol: as §1, §2

[13] = test system: Bacillus subtilis NCTC 9372; design: key: − = no fluorescence detected; e = trace of fluorescence; +/− = weak fluorescence; + = medium fluorescence; ++ = strong fluorescence; NG = No Growth; details: substrate 100 mg/l, 24 hours at 37° C., UV 360-365 nm
Protocol: as §1, §2

[14] = test system: Serratia marcescens NCTC 10211; design: key: − = no fluorescence detected; e = trace of fluorescence; +/− = weak fluorescence; + = medium fluorescence; ++ = strong fluorescence; NG = No Growth; details: substrate 100 mg/l, 24 hours at 37° C., UV 360-365 nm
Protocol: as §1, §2

[15] = test system: Enterobacter cloacae NCTC 11936; design: key: − = no fluorescence detected; e = trace of fluorescence; +/− = weak fluorescence; + = medium fluorescence; ++ = strong fluorescence; NG = No Growth; details: substrate 100 mg/l, 24 hours at 37° C., UV 360-365 nm
Protocol: as §1, §2

[16] = test system: Streptococcus pyogenes NCTC 8306; design: key: − = no fluorescence detected; e = trace of fluorescence; +/− = weak fluorescence; + = medium fluorescence; ++ = strong fluorescence; NG = No Growth; details: substrate 100 mg/l, 24 hours at 37° C., UV 360-365 nm
Protocol: as §1, §2

[17] = test system: Pseudomonas aeruginosa NCTC 10662; design: key to fluorescence intensity: − = no fluorescence detected; e = trace of fluorescence; +/− = weak fluorescence; + = medium fluorescence; ++ = strong fluorescence; NG = No Growth; details: for fluorescence intensity: Pseudomonas aeruginosa NCTC 10662, substrate 100 mg/l, 24 hours at 37° C., UV 360-365 nm; for fluorescence produced: Pseudomonas aeruginosa strain
Protocol: as §1, §2

[18] = test system: Burkholderia cepacia 1222; design: key to fluorescence intensity: − = no fluorescence detected; e = trace of fluorescence; +/− = weak fluorescence; + = medium fluorescence; ++ = strong fluorescence; NG = No Growth; details: for fluorescence intensity: Burkholderia cepacia 1222, substrate 100 mg/l, 24 hours at 37° C., UV 360-365 nm; for fluorescence produced: B. cepacia strain
Protocol: as §1, §2

[19] = test system: Staphylococcus aureus strains; details: the two Staphylococcus aureus strains
Protocol: as §1, §2

[20] = test system: Morganella morganii 462403 (wild); design: key: − = no fluorescence detected; e = trace of fluorescence; +/− = weak fluorescence; + = medium fluorescence; ++ = strong fluorescence; NG = No Growth; details: substrate 100 mg/l, 24 hours at 37° C., UV 360-365 nm
Protocol: as §1, §2

[21] = test system: Citrobacter freundii 46262 (wild); design: key: − = no fluorescence detected; e = trace of fluorescence; +/− = weak fluorescence; + = medium fluorescence; ++ = strong fluorescence; NG = No Growth; details: substrate 100 mg/l, 24 hours at 37° C., UV 360-365 nm
Protocol: as §1, §2

[22] = test system: Enterococcus faecium NCTC 7171; design: key: − = no fluorescence detected; e = trace of fluorescence; +/− = weak fluorescence; + = medium fluorescence; ++ = strong fluorescence; NG = No Growth; details: Enterococcus faecium NCTC 7171 (Table 3); substrate 100 mg/l, 24 hours at 37° C., UV 360-365 nm
Protocol: as §1, §2

`COc1cc(NC(=O)CCN)c(-c2nc3ccccc3o2)cc1OC` [Substrate 11] was tested, and the fluorescence intensity [1] was “+/−”, the fluorescence intensity [2] was “+/−” and the fluorescence intensity [3] was “−”. For the same compound, the fluorescence intensity [4] was “+”, the fluorescence intensity [5] was “+/−” and the fluorescence intensity [6] was “+”. For the same compound, the fluorescence intensity [7] was “−”, the fluorescence intensity [8] was “+” and the fluorescence intensity [9] was “+”. The fluorescence intensity [10] was “−”, the fluorescence intensity [11] was “+/−” and the fluorescence intensity [12] was “−”. The fluorescence intensity [13] was “−”, the fluorescence intensity [14] was “+” and the fluorescence intensity [15] was “+”. For the same compound, the fluorescence intensity [16] was “−”, the fluorescence intensity [17] was “+/−” and the fluorescence intensity [18] was “+”.
`C[C@H](N)C(=O)Nc1ccc(Cl)cc1-c1nc2ccccc2s1` [Substrate 19] was tested, and the fluorescence intensity [1] was “−”, the fluorescence intensity [2] was “−” and the fluorescence intensity [3] was “−”. For the same compound, the fluorescence intensity [4] was “+/−”, the fluorescence intensity [5] was “−” and the fluorescence intensity [6] was “+”. The fluorescence intensity [7] was “NG”, the fluorescence intensity [8] was “−” and the fluorescence intensity [9] was “+”. The fluorescence intensity [10] was “NG”, the fluorescence intensity [12] was “NG” and the fluorescence intensity [13] was “−”. For the same compound, the fluorescence intensity [14] was “−”, the fluorescence intensity [15] was “+” and the fluorescence intensity [16] was “NG”. The fluorescence intensity [17] was “−”, the “fluorescence produced” value [17] was “negative” and the fluorescence intensity [18] was “−”.
`NCC(=O)Nc1ccccc1-c1nc2ccccc2o1` [Substrate 3] was tested, and the fluorescence intensity [1] was “+/−”, the fluorescence intensity [2] was “−” and the fluorescence intensity [3] was “+”. For the same compound, the fluorescence intensity [4] was “−”, the fluorescence intensity [5] was “NG” and the fluorescence intensity [6] was “++”. The fluorescence intensity [7] was “NG”, the fluorescence intensity [8] was “+” and the fluorescence intensity [9] was “++”. For the same compound, the fluorescence intensity [10] was “NG”, the fluorescence intensity [11] was “+/−” and the fluorescence intensity [12] was “NG”. For the same compound, the fluorescence intensity [13] was “+/−”, the fluorescence intensity [14] was “++” and the fluorescence intensity [15] was “++”. For the same compound, the fluorescence intensity [16] was “NG”, the fluorescence intensity [17] was “+/−” and the “fluorescence produced” value [18] was “medium blue fluorescence”. The fluorescence intensity [18] was “+”.
With `C[C@H](N)C(=O)Nc1ccccc1-c1nc2cc(Cl)ccc2o1` [Substrate 4] the “fluorescence produced” value [19] was “no fluorescence was detected”, the fluorescence intensity [1] was “−” and the fluorescence intensity [2] was “+/−”. For the same compound, the fluorescence intensity [3] was “−”, the fluorescence intensity [4] was “NG” and the fluorescence intensity [5] was “−”. For the same compound, the fluorescence intensity [6] was “NG^2”, the fluorescence intensity [7] was “−” and the fluorescence intensity [8] was “−”. For the same compound, the fluorescence intensity [9] was “+”, the fluorescence intensity [10] was “−” and the fluorescence intensity [11] was “+”. For the same compound, the fluorescence intensity [12] was “−”, the fluorescence intensity [13] was “NG” and the fluorescence intensity [14] was “++”. The fluorescence intensity [15] was “+”, the fluorescence intensity [16] was “−” and the fluorescence intensity [17] was “+/−”. For the same compound, the “fluorescence produced” value [17] was “weak violet fluorescence” and the fluorescence intensity [18] was “−”.
For `C[C@H](N)C(=O)Nc1cc2c(cc1-c1nc3ccccc3n1CCc1ccccc1)OCO2` [Substrate 16], the fluorescence intensity [1] was “−”, the fluorescence intensity [20] was “+” and the fluorescence intensity [21] was “++”. The fluorescence intensity [22] was “−”, the fluorescence intensity [2] was “−” and the fluorescence intensity [3] was “−”. The fluorescence intensity [4] was “++”, the fluorescence intensity [6] was “++” and the fluorescence intensity [7] was “−”. The fluorescence intensity [8] was “−”, the fluorescence intensity [9] was “++” and the fluorescence intensity [10] was “−”. For the same compound, the fluorescence intensity [11] was “−”, the fluorescence intensity [12] was “−” and the fluorescence intensity [13] was “−”. For the same compound, the fluorescence intensity [14] was “++”, the fluorescence intensity [15] was “++” and the fluorescence intensity [16] was “−”. For the same compound, the fluorescence intensity [17] was “−” and the fluorescence intensity [18] was “++”.
`NCCC(=O)Nc1ccccc1-c1nc2ccccc2o1` [Substrate 2] was tested, and the fluorescence intensity [1] was “ε”, the fluorescence intensity [2] was “+/−” and the fluorescence intensity [3] was “−”. For the same compound, the fluorescence intensity [4] was “−”, the fluorescence intensity [5] was “+/−” and the fluorescence intensity [6] was “+”. For the same compound, the fluorescence intensity [7] was “−”, the fluorescence intensity [8] was “−” and the fluorescence intensity [9] was “+/−”. For the same compound, the fluorescence intensity [10] was “−”, the fluorescence intensity [11] was “+/−” and the fluorescence intensity [12] was “−”. The fluorescence intensity [13] was “NG”, the fluorescence intensity [14] was “+” and the fluorescence intensity [15] was “+”. The fluorescence intensity [16] was “NG”, the fluorescence intensity [17] was “+” and the “fluorescence produced” value [18] was “green fluorescence”. The fluorescence intensity [18] was “+”.
With `NCCC(=O)Nc1ccccc1-c1nc2ccccc2s1` [Substrate 18] the fluorescence intensity [1] was “NG”, the fluorescence intensity [2] was “NG” and the fluorescence intensity [3] was “NG”. For the same compound, the fluorescence intensity [4] was “NG”, the fluorescence intensity [5] was “NG” and the fluorescence intensity [6] was “++”. For the same compound, the fluorescence intensity [7] was “NG”, the fluorescence intensity [8] was “NG” and the fluorescence intensity [9] was “NG”. The fluorescence intensity [10] was “NG”, the fluorescence intensity [11] was “NG” and the fluorescence intensity [12] was “NG”. The fluorescence intensity [13] was “NG”, the fluorescence intensity [14] was “++” and the fluorescence intensity [15] was “NG”. For the same compound, the fluorescence intensity [16] was “NG”, the fluorescence intensity [17] was “++” and the fluorescence intensity [18] was “NG”.

Reference: patent US8216800B2, “Substrates for detecting peptidase activity and methods using the substrates” (Biomerieux, priority 2007, dated 2012)
